# Target: Mitogen-activated protein kinase kinase kinase kinase 1 (Homo sapiens, UniProt Q92918)
# Assay: Inhibition of recombinant human HPK1 expressed in baculovirus infected insect cells using SRKS1 peptide as substrate incubated for 15 mins followed by substrate addition and measured after 3 hrs by TR-FRET assay
# Sequence of Mitogen-activated protein kinase kinase kinase kinase 1 (Q92918 whole entry): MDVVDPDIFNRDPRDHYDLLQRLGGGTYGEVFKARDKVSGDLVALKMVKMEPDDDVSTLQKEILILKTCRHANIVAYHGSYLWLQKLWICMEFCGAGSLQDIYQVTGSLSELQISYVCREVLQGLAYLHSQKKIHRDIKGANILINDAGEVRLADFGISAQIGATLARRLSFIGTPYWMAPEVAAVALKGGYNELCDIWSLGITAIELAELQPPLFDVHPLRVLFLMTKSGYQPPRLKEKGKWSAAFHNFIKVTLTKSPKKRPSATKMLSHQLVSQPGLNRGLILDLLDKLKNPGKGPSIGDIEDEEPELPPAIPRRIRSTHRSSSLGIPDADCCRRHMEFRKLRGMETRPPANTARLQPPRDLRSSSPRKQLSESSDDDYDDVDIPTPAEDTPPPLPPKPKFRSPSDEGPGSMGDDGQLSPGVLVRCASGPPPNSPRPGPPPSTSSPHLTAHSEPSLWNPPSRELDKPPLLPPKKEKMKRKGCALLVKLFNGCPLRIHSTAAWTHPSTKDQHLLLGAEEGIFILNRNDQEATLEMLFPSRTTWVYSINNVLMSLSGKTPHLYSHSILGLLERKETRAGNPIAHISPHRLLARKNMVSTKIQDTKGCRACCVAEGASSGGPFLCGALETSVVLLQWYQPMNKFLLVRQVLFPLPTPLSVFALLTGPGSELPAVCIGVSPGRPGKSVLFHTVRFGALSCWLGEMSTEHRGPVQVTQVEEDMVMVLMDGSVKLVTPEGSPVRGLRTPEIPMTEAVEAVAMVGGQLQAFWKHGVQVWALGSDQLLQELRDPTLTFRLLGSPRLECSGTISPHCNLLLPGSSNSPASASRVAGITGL
smiles,measurement,value
Cc1c(-c2cc(F)c3c(c2)/C(=C/c2ccc(C4CC4)[nH]2)C(=O)N3)cnc2c1NCCO2,IC50,0.05 nM

# Source: ChEMBL document CHEMBL4732267, “Novel Substituted Exomethylene-oxindoles as HPK1 Inhibitors” (ACS Med Chem Lett, 2021)
